Where no end group is shown, it is not given here.

This is an account of results in paper PMC4784888, “Activity Based High-Throughput Screening for Novel O-GlcNAc Transferase Substrates Using a Dynamic Peptide Microarray” (PLoS ONE, 2016).

Common to all, as to type: biochemical, human
One experiment concerns m-OGT. The experiment in a line: UDP-Glo assay of RBL-2_410–422 peptides. The protocol:
(§1) One step OGT purification was performed using His60 Ni Gravity Flow Columns (Clontech) according to the manufacturer’s instructions. Briefly, the nickel column was equilibrated with a buffer containing 50 mM sodium phosphate, 300 sodium chloride, 20 mM imidazole, and pH 7.4, followed by incubation with cell lysate containing His tag OGT for 1h at 4°C. After washing several times using buffer containing 50 mM sodium phosphate, 300 sodium chloride, 40 mM imidazole, and pH 7.4, the recombinant OGT was eluted using elution buffer containing 50 mM sodium phosphate, 300 mM sodium chloride, 300 mM imidazole, and pH 7.4. The eluted fraction was concentrated through a 100,000 Da molecular weight cut off Amicon unit by centrifugation 10 min at 5000 RPM at 4°C.
In this work OGT activity was also determined using UDP-Glo™ Glycosyltransferase Assay according to the manufacturer’s instructions. This assay evaluates O-GlcNAcylation through monitoring UDP formation in glycosyltransferase reactions by luminescence. Briefly, OGT reactions were carried out in 100 μL final volume containing 0.5 mM UDP-GlcNAc, 6 μg purified/60 μg lysate enzyme, 100 μM peptide in OGT reaction buffer (50 mM Tris—HCl, pH 7.5;1 mM DTT;12.5 mM MgCl2). Reactions were incubated at room temperature for 2h. At the end of that period, each reaction was transferred in triplicate into a 96-well white microplate and was mixed with a 1:1 ratio of UDP-Glo Detection Reagent. After incubation at room temperature for 1h, the luminescence was recorded with a Mithras LB940 Multimode microplate reader using Mikro Win 2000 software (Berthold Technology, Germany).
To further confirm this and investigate the role of this and surrounding amino acid residues in our activity based assay, we resynthesized the RBL-2 peptide present on the microarray and performed an Ala scan, thus replacing of all the possible O-GlcNAc sites (Ser and Thr) in RBL-2_420–422 (Fig 4A). To immobilize the peptides on the chip, all the peptides were prepared with an extra CG at the NH2 terminal to allow immobilization on the maleimide-based chip surface. Cys 415 was replaced by an Ala to avoid cyclisation by disulfide bond formation or dual modes of immobilization (S2 Fig). […] The mutants T421A decreased the O-GlcNAcylation of RBL-2_420–422 peptide by 40% compared to the control (wild type with C415A). […] In addition, OGT activity against these peptides was further validated using the UDP-Glo assay, which measures the amount of UDP produced when GlcNAc is transferred from UDP-GlcNAc to the sugar accepting peptide. […] This might be because the UDP assay is more sensitive than the antibody-based detection.
Fig 4 S420A is a possible O-GlcNAc site in the RBL-2 protein. A, peptide mutant used for an Ala scan. For immobilization purposes, peptides were prepared with an extra CG at the N-terminus and Cys 415 was replaced by Ala. B, OGT activity against RBL-2_410–422 peptide mutants was determined using peptide microarray analysis with 0.2 μg/μL purified m-OGT and 1 mM UDP-GlcNAc. C, UDP-Glo assay was used to measure O-GlcNAcylation of RBL-2_410–422 peptide mutants as well. D, kinetic signals from the same microarray experiment of panel B are shown.
O-GlcNAcylation of wild type RBL-2-410-422 and C415A peptide was determined using both the UDP assay(A) and the microarray assay (B) with 1 mM UDP-GlcNAc and 0.2 μg/μL purified m-OGT. […] (TIF) Click here for additional data file.

The subject of experiment [1] is purified m-OGT. Put plainly: Ala scan of RBL-2_410–422 on peptide microarray. To be noted: 1 mM UDP-GlcNAc, 0.2 μg/μL purified m-OGT; for OGT activity against RBL-2_410–422 Ala mutants (in words): extra CG at NH2 terminal. On the procedure:
as §1
(§2) Peptide O-GlcNAcylation was assessed using PamChip 4 microarray chips with a PamStation 12 instrument (Pamgene international, The Netherlands). The OGT enzyme reaction was prepared essentially as described[26] with minor modifications. Briefly, before addition of the enzyme reaction, the microarray was blocked with blocking buffer (1% BSA in TBS). After 30 cycles (2 cycles/min) blocking, the blocking buffer was aspirated and the microarray was incubated with 40 μL of the enzyme reaction containing OGT (lysate or purified), OGT reaction buffer (50 mM Tris—HCl, pH 7.5;1 mM DTT;12.5 mM MgCl2), a 1:1 pre-incubated mixture of anti-O-GlcNAc and FITC conjugated secondary antibody, and the sugar donor UDP-GlcNAc or water as a control for 480 cycles (2 cycles/min) at 30°C. The microarray was run in parallel by pumping the reaction up and down through the porous membrane at every cycle and a tiff image was obtained at every 20 cycles by a CCD camera inside the PamStation. O-GlcNAcylation of each peptide was detected by a fluorescent signal which was produced by an FITC conjugated antibody bound to the O-GlcNAc moiety on the peptide.
(§3) Image analysis was performed using BioNavigator 6 software (Pamgene international, The Netherlands). Briefly, each image was quantified by automated array grid finding and subsequent quantification of signal and local background for each individual spot. In this work, the signal median-minus-background value was used as the quantitative parameter for the O-GlcNAcylation of the peptide.
Synthesis of all the peptides was achieved by following a standard Fmoc SPPS strategy on a Symphony Multiple Peptide Synthesizer and starting from rink amide resin. The following Fmoc amino acids were used: Fmoc-Cys(Trt)-OH, Fmoc-Gly-OH, Fmoc-Lys(Boc)-OH, Fmoc-Glu(Otbu)-OH, Fmoc-Asn(Trt)-OH, Fmoc-Ser(tBu)-OH, Fmoc-Thr(tBu)-OH, Fmoc-Ala-OH, Fmoc-Pro-OH, Fmoc-Val-OH. Deprotection was performed using 20% piperidine in DMF, and coupling was performed using 1:0.9:2 amino acid/ HBTU/DIPEA in DMF. After completion of the synthesis, the protected peptidyl resins were incubated with a 10 mL mixture of TFA (trifluoroacetic acid): H2O: triisopropylsilane (TIPS): 1, 2-ethanedithiol (EDT) (9:0.5:0.25:0.25, v/v/v/v) and allowed to stir for 2 h at room temperature under a nitrogen atmosphere. The cleaving mixture was filtered and the resin was washed with TFA (2 mL) and DCM (4 mL). The residue was precipitated by treatment of precooled diethyl ether and centrifugation. Two times washing and centrifugation yielded the crude products in a pellet. The precipitated peptides were dissolved in water, frozen, and lyophilized. All products were stored at -20°C. Crude peptide analysis was carried out by LC-MS.
To further confirm this and investigate the role of this and surrounding amino acid residues in our activity based assay, we resynthesized the RBL-2 peptide present on the microarray and performed an Ala scan, thus replacing of all the possible O-GlcNAc sites (Ser and Thr) in RBL-2_420–422 (Fig 4A). To immobilize the peptides on the chip, all the peptides were prepared with an extra CG at the NH2 terminal to allow immobilization on the maleimide-based chip surface. […]

The subject of experiment [2] is purified m-OGT. The experiment in a line: Inhibition of OGT activity by RBL-2_S420A 410–422 peptide on nuclear receptor interaction peptide microarray. The following applies: purified m-OGT (0.2 μg/μL), UDP-GlcNAc 0.5 mM; for inhibition of OGT activity (in words): peptide 0.5 mM. The protocol: as §1, §2, §3
We then used the identified substrate sequence as a starting point towards the discovery of novel selective OGT inhibitors. […] To test it, we determined its inhibitory effect on the O-GlcNAcylation of two OGT substrates identified in our work and a known OGT inhibitor was used as a positive control.
Fig 5 The RBL-2_S420A 410–422 peptide inhibited OGT activity. The inhibitory effect of RBL-2_S420A 410–422 peptide on OGT activity was determined on the nuclear receptor interaction peptide microarray. […]

Where [3] appears, read: UDP-Glo, luminescence, 0.5 mM UDP-GlcNAc, 6 μg purified enzyme, 100 μM peptide, 50 mM Tris-HCl pH 7.5, room temperature 2 h, triplicate.
Setting [4] is: microarray, control wild type with C415A.

As to “C415A: RBL-2_410–422 peptide with Cys 415 replaced by an Ala (CGKENSPAVTPVSTA-NH2; UniProt Q08999 410-422, looked up, variant C415A)”, the “OGT activity of C415A compared with wild type, UDP assay” value in the experiment on m-OGT (UDP assay, 1 mM UDP-GlcNAc, 0.2 μg/μL purified m-OGT) is recorded as “modest increase in OGT activity”. In addition, the “C415A effect on O-GlcNAcylation, overall statement” value in the experiment with purified m-OGT [1] (UDP assay and microarray) is reported as “modest effect on O-GlcNAcylation”.

On to S413A: Ala scan mutant of RBL-2_410–422, for which the “O-GlcNAcylation activity in solution (in words)” value (“O-GlcNAcylation activity” below) with m-OGT (setting [3]) is “consistent with the microarray results”. Moreover, the “OGT activity against RBL-2_410–422 Ala mutants (in words)” value in the experiment with purified m-OGT [1] (setting [4]) is on record as “did not show any effect”.

As for “S420A: Ala scan mutant of RBL-2_410–422 (CGKENSPAVTPVATA-NH2)”, the “O-GlcNAcylation activity” value with m-OGT (setting [3]) is reported as “consistent with the microarray results”. In addition, the “OGT activity against RBL-2_410–422 Ala mutants (in words)” value in the experiment on purified m-OGT [1] (setting [4]) is on record as “complete loss of OGT activity”.

Turning to “T421A: Ala scan mutant of RBL-2_410–422 (CGKENSPAVTPVSAA-NH2)”, the “O-GlcNAcylation activity” value in the experiment on m-OGT (setting [3]) is recorded as “consistent with the microarray results”. Moreover, the “decrease of O-GlcNAcylation compared to control” value in the experiment with purified m-OGT [1] (setting [4]) is 40%.

For “T417A: Ala scan mutant of RBL-2_410–422 (CGKENSPAVAPVSTA-NH2)”, the “remaining O-GlcNAcylation” value in the experiment on m-OGT (setting [3]) is 20%. Moreover, in the experiment with purified m-OGT [1] (setting [4]), the “OGT activity against RBL-2_410–422 Ala mutants (in words)” value is listed as “complete loss of OGT activity”.

Regarding “RBL-2_S420A 410–422: S420A mutation peptide of RBL-2 410–422 tested as OGT inhibitor (CGKENSPAVTPVATA-NH2)”, the “inhibition of O-GlcNAcylation of NCOA6” value in the experiment on purified m-OGT [2] (500 μM S420A peptide, NCOA6_1479–1501 substrate) was found to be 50%. Besides, the “inhibition of O-GlcNAcylation of WIPI 1” value in the experiment with purified m-OGT [2] (500 μM S420A peptide, WIPI 1 substrate) is on record as 50%. Moreover, the “inhibition of OGT activity (in words)” value with purified m-OGT [2] was “still binds to the OGT active site and therefore inhibited OGT activity”; in the experiment with purified m-OGT [2] (listed as RBL-2_S420A 420–422) it was “significant inhibition of OGT activity”.
